Results: PubChem BioAssay AID1963848 (Molecular Pharmacology Branch, DTP, NCI, 2024)

Tested on: 379773-124-R-J2-PDC spheroid viability
Assay: Anticancer human tumor 379773-124-R-J2-PDC patient-derived endometrial carcinoma cell line growth inhibition [POLQ]
Details: spheroids with HUVEC and MSC; for IC50: curve of first compound; for viability, T/C: stronger effect = lower value
Summary of the method: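 Patient-derived tumour cells were co-cultured with HUVEC and mesenchymal stem cells as multicellular spheroids at 37 °C. They were treated with POLQ inhibitors (novobiocin, ART-558, RP6685) alone or combined with other agents. Top concentrations were at or near clinical Cmax (otherwise 10 microM; SN-38 at 1 microM), decreasing in half-log steps.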

[1] = second compound 0.0316 µM, first compound 0.0316 µM
[2] = second compound 0.0316 µM, first compound 0.1 µM
[3] = second compound 0.0316 µM, first compound 0.316 µM
[4] = second compound 0.0316 µM, first compound 1 µM
[5] = second compound 0.0316 µM, first compound 3.16 µM
[6] = second compound 0.0316 µM, first compound 10 µM
[7] = second compound 0.1 µM, first compound 0.0316 µM
[8] = second compound 0.1 µM, first compound 0.1 µM
[9] = second compound 0.1 µM, first compound 0.316 µM
[10] = second compound 0.1 µM, first compound 1 µM
[11] = second compound 0.1 µM, first compound 3.16 µM
[12] = second compound 0.1 µM, first compound 10 µM
[13] = second compound 0.316 µM, first compound 0.0316 µM
[14] = second compound 0.316 µM, first compound 0.1 µM
[15] = second compound 0.316 µM, first compound 0.316 µM
[16] = second compound 0.316 µM, first compound 1 µM
[17] = second compound 0.316 µM, first compound 3.16 µM
[18] = second compound 0.316 µM, first compound 10 µM
[19] = second compound 1 µM, first compound 0.0316 µM
[20] = second compound 1 µM, first compound 0.1 µM
[21] = second compound 1 µM, first compound 0.316 µM
[22] = second compound 1 µM, first compound 1 µM
[23] = second compound 1 µM, first compound 3.16 µM
[24] = second compound 1 µM, first compound 10 µM
[25] = second compound 3.16 µM, first compound 0.0316 µM
[26] = second compound 3.16 µM, first compound 0.1 µM
[27] = second compound 3.16 µM, first compound 0.316 µM
[28] = second compound 3.16 µM, first compound 1 µM
[29] = second compound 3.16 µM, first compound 3.16 µM
[30] = second compound 3.16 µM, first compound 10 µM
[31] = second compound 10 µM, first compound 0.0316 µM
[32] = second compound 10 µM, first compound 0.1 µM
[33] = second compound 10 µM, first compound 0.316 µM
[34] = second compound 10 µM, first compound 1 µM
[35] = second compound 10 µM, first compound 3.16 µM
[36] = second compound 10 µM, first compound 10 µM
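Also: spheroids exposed to drugs for seven days before readout.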
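For viability, T/C in this document: percent viability relative to DMSO vehicle control taken as 100%.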

In the case of `COc1cc(C2c3cc4c(cc3C(OC3OC5COC(C)OC5C(O)C3O)C3COC(=O)C23)OCO4)cc(OC)c1O` (stereo unspecified) + Cc1cccc(N(C)C(=O)C2C(O)CCN2c2nc(C)cc(C(F)(F)F)c2C#N)c1, the IC50 (second compound 0.0316 µM) is reported as 1190 nM, the IC50 (second compound 0.1 µM) is reported as 1230 nM and the IC50 (second compound 0.316 µM) is reported as 914 nM. For the same molecule, the IC50 (second compound 1 µM) was 1190 nM, the IC50 (second compound 3.16 µM) was 1040 nM and the IC50 (second compound 10 µM) was 577 nM. The viability, T/C [1] was 91.2%, the viability, T/C [2] was 71.9% and the viability, T/C [3] was 82.6%. The viability, T/C [4] was 56.5%, the viability, T/C [5] was 12.7% and the viability, T/C [6] was 8.66%. It also gave a viability, T/C [7] of 82.8%, a viability, T/C [8] of 83.6% and a viability, T/C [9] of 83.8%. For the same molecule, the viability, T/C [10] was 58%, the viability, T/C [11] was 12.7% and the viability, T/C [12] was 9.6%. For the same molecule, the viability, T/C [13] was 86%, the viability, T/C [14] was 82% and the viability, T/C [15] was 68.4%. It also gave a viability, T/C [16] of 52.9%, a viability, T/C [17] of 12% and a viability, T/C [18] of 9.6%. It also gave a viability, T/C [19] of 74.4%, a viability, T/C [20] of 84.9% and a viability, T/C [21] of 71.1%. The viability, T/C [22] was 57.1%, the viability, T/C [23] was 9.91% and the viability, T/C [24] was 11.1%. It also gave a viability, T/C [25] of 73.3%, a viability, T/C [26] of 80.9% and a viability, T/C [27] of 77.9%. For the same molecule, the viability, T/C [28] was 51.4%, the viability, T/C [29] was 11% and the viability, T/C [30] was 13.6%. For the same molecule, the viability, T/C [31] was 77.6%, the viability, T/C [32] was 75% and the viability, T/C [33] was 66.1%. The viability, T/C [34] was 35.5%, the viability, T/C [35] was 11.9% and the viability, T/C [36] was 11.2%.

`COc1cccc2c1C(=O)c1c(O)c3c(c(O)c1C2=O)CC(O)(C(=O)CO)CC3OC1CC(N)C(O)C(C)O1` (stereo unspecified) + Cc1cccc(N(C)C(=O)C2C(O)CCN2c2nc(C)cc(C(F)(F)F)c2C#N)c1 gave an IC50 (second compound 0.0316 µM) of 58.5 nM, an IC50 (second compound 0.1 µM) of 63.5 nM and an IC50 (second compound 0.316 µM) of 52 nM. The IC50 (second compound 1 µM) was 54.1 nM, the IC50 (second compound 3.16 µM) was 48.3 nM and the IC50 (second compound 10 µM) was under 31.6 nM. It also gave a viability, T/C [1] of 80.6%, a viability, T/C [2] of 22% and a viability, T/C [3] of 9.56%. It also gave a viability, T/C [4] of 6.15%, a viability, T/C [5] of 0.89% and a viability, T/C [6] of 0.14%. For the same molecule, the viability, T/C [7] was 82.8%, the viability, T/C [8] was 28.3% and the viability, T/C [9] was 9.45%. For the same molecule, the viability, T/C [10] was 5.6%, the viability, T/C [11] was 1.37% and the viability, T/C [12] was 0.84%. It also gave a viability, T/C [13] of 70.5%, a viability, T/C [14] of 23.1% and a viability, T/C [15] of 7.91%. For the same molecule, the viability, T/C [16] was 6.47%, the viability, T/C [17] was 2% and the viability, T/C [18] was 1.9%. It also gave a viability, T/C [19] of 74.8%, a viability, T/C [20] of 20.8% and a viability, T/C [21] of 9.58%. The viability, T/C [22] was 5.67%, the viability, T/C [23] was 0.65% and the viability, T/C [24] was 1.38%. The viability, T/C [25] was 69.5%, the viability, T/C [26] was 15.7% and the viability, T/C [27] was 7.22%. For the same molecule, the viability, T/C [28] was 7.14%, the viability, T/C [29] was 1.2% and the viability, T/C [30] was 0.28%. It also gave a viability, T/C [31] of 48.5%, a viability, T/C [32] of 12% and a viability, T/C [33] of 9.32%. For the same molecule, the viability, T/C [34] was 4.59%, the viability, T/C [35] was 0.51% and the viability, T/C [36] was 0.38%.

Work on `Nc1ccn(C2OC(CO)C(O)C2(F)F)c(=O)n1` (stereo unspecified) + Cc1cccc(N(C)C(=O)C2C(O)CCN2c2nc(C)cc(C(F)(F)F)c2C#N)c1 yielded an IC50 (second compound 0.0316 µM) of under 31.6 nM, an IC50 (second compound 0.1 µM) of under 31.6 nM and an IC50 (second compound 0.316 µM) of under 31.6 nM. The IC50 (second compound 1 µM) was under 31.6 nM, the IC50 (second compound 3.16 µM) was under 31.6 nM and the IC50 (second compound 10 µM) was under 31.6 nM. It also gave a viability, T/C [1] of 25.1%, a viability, T/C [2] of 9.7% and a viability, T/C [3] of 7.84%. It also gave a viability, T/C [4] of 9.16%, a viability, T/C [5] of 9.02% and a viability, T/C [6] of 7.36%. The viability, T/C [7] was 21%, the viability, T/C [8] was 11.4% and the viability, T/C [9] was 10.4%. The viability, T/C [10] was 8.24%, the viability, T/C [11] was 9.14% and the viability, T/C [12] was 8.33%. For the same molecule, the viability, T/C [13] was 25.4%, the viability, T/C [14] was 11.3% and the viability, T/C [15] was 7.36%. The viability, T/C [16] was 9.63%, the viability, T/C [17] was 9.1% and the viability, T/C [18] was 9.51%. For the same molecule, the viability, T/C [19] was 17.7%, the viability, T/C [20] was 8.64% and the viability, T/C [21] was 7.94%. It also gave a viability, T/C [22] of 9.54%, a viability, T/C [23] of 10.9% and a viability, T/C [24] of 9.2%. The viability, T/C [25] was 21.1%, the viability, T/C [26] was 10.5% and the viability, T/C [27] was 8.82%. The viability, T/C [28] was 9.94%, the viability, T/C [29] was 10.1% and the viability, T/C [30] was 9.91%. The viability, T/C [31] was 15.7%, the viability, T/C [32] was 10.8% and the viability, T/C [33] was 12.1%. It also gave a viability, T/C [34] of 11.4%, a viability, T/C [35] of 13.6% and a viability, T/C [36] of 11.1%.
